# According to patent US20230258642A1, “COMPOSITIONS AND METHODS FOR IDENTIFICATION OF MODULATORS OF RAS PROTEIN COMPLEXES” (QUANTA THERAPEUTICS, INC., priority 2020, published 2023):
# How the values were obtained:
# Annexin V = molecular target: T1, Annexin V (Homo sapiens, UniProt P08758); assay: Annexin V counter-screen SHG assay on phosphatidyl serine surface; assay type: binding
# T1 sequence (P08758 1-320): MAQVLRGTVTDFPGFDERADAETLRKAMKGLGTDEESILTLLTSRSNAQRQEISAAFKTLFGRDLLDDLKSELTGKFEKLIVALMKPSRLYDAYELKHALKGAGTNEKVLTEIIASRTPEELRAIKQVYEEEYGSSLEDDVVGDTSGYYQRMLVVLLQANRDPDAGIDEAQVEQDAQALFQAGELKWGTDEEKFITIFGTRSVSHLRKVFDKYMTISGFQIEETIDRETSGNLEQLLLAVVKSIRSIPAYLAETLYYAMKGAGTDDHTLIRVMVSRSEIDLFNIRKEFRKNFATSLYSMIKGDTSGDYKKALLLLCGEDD
# Excerpt: Annexin V binds to phosphatidyl serine membrane like KRAS^G12D-FMe in a calcium-dependent manner. However, Annexin V is structurally unrelated to KRAS/RAF1 complex. Addition of EDTA, a chelation agent, results in >80% decrease in SHG signal due to loss of Annexin V protein from the phosphatidyl serine surface. […] This assay was established as a counter-screen assay to the KRAS^G12D-FMe+SH-active RAF1^RBDCRD interaction, allowing detection of false-positives due to metal chelation or non-specific protein binding.
# [1] = molecular target: T2, KRAS^G12D-FMe+RAF1^RBDCRD-SHG2 complex (Homo sapiens, UniProt P01116, G12D); assay: SHG complex assay: KRAS^G12D-FMe + SH-active RAF1^RBDCRD complex tethered to a PS bilayer; assay type: binding; conditions: complex tethered overnight in the presence of 1 mM GDP
# T2 construct: 1; farnesyl and carboxymethyl modification (FMe) at the C-terminal Cys
# Protocol: Factors contributing towards maximizing the complex SHG signal compared to bilayer-tethered KRAS^G12D-FMe alone were further optimized in order to develop a robust screening assay that would allow the separation of real conformational modulators from the baseline signal noise. Accordingly, a pre-formed complex was tethered to the bilayer and the baseline SHG intensity of the complex was compared to each individual component.
# In comparison, each protein component was incubated on the PS bilayer to make sure the SHG signal generated by the complex was distinct from any signal produced by the individual components (FIG. 3B). The PS bilayer alone produced a baseline SHG signal around 6000. […]
# Since RAF1 binding to KRAS is nucleotide dependent, the SHG signal change was monitored in the presence of 10 mM EDTA and 1 mM GDP. […] The SHG response to this control reinforced that the detected complex signal behaves according to its characterized biology.
# A beam from a Ti:S femtosecond laser is used as the fundamental according to procedures known to those skilled in the art. […] Second harmonic light generated by the surface is collected, filtered from the fundamental, and detected by a photomultiplier tube (PMT) according to procedures known to those skilled in the art. A baseline signal with declining intensity due to photobleaching is recorded. […]
structure (smiles),measurement,setting,value
O=C(O)CN(CCN(CC(=O)O)CC(=O)O)CC(=O)O [EDTA],decrease in SHG signal (loss of Annexin V from phosphatidyl serine surface),Annexin V,> 80%
Nc1nc2c(ncn2[C@@H]2O[C@H](COP(=O)(O)OP(=O)(O)O)[C@@H](O)[C@H]2O)c(=O)[nH]1 [GDP],complex SHG signal,[1],no complex SHG signal was detected
COc1ccc2c(c1)CN(C(=O)CCN1CCC(Cc3ccccc3)CC1)CCS2 [K201],SHG response upon addition to Annexin V,Annexin V,dose-dependent SHG response
